Results taken from ChEMBL document CHEMBL1157358, “Comparative study of the effects of pyridoxine, rifampin, and renal function on hematological adverse events induced by linezolid” (Antimicrob Agents Chemother, 2007).
≈ marks a conversion by molar mass, not a printed value. Calls of active or inactive are those of the source. The calls are words filed in the database; no cut-off is given here.

Assays:
Homo sapiens [1] = species: Homo sapiens; experiment: Inhibition of linezolid-induced hematological events in orthopedic implant infection patient assessed as thrombocytopenia incidence relative to control; type: functional; design: scale not given: the % may be the effect or the level left
Homo sapiens [2] = species: Homo sapiens; experiment: Inhibition of linezolid-induced hematological events in orthopedic implant infection patient assessed as reduction of anemia incidence relative to control; type: functional, organism-based
Staphylococcus aureus = experiment: Antibacterial activity against Staphylococcus aureus; type: functional
Staphylococcus = experiment: Antibacterial activity against coagulase-negative Staphylococcus; type: functional
Enterococcus = experiment: Antibacterial activity against Enterococcus; type: functional
Streptococcus = experiment: Antibacterial activity against Streptococcus; type: functional
[3] = test system: mitochondrial protein synthesis; experiment: Toxicity in rat heart mitochondria assessed as inhibition of mitochondrial protein synthesis; conditions: pooled result: one value given for 4 cell lines, strains, targets or settings
[4] = AUC in human at 600 mg administered every 12 hrs measured after 24 hrs; type: ADME, organism-based; design: time < 24 hr, dose 600 mg; conditions: plasma
[5] = Drug level at steady state in human serum at 600 mg administered every 12 hrs; type: ADME, cell-free; conditions: read-out: Drug uptake
Homo sapiens [6] = experiment: Inhibition of linezolid-induced hematological events in orthopedic implant infection patient assessed as effect on thrombocytopenia at 200 mg, po once daily; type: functional, organism-based
Homo sapiens [7] = experiment: Inhibition of linezolid-induced hematological events in orthopedic implant infection patient assessed as effect on anemia at 200 mg, po once daily; type: functional, organism-based
Homo sapiens [8] = species: Homo sapiens; experiment: Inhibition of linezolid-induced hematological events in bone infection patient assessed as rate of thrombocytopenia at 125 mg relative to control; type: functional; design: scale not given: the % may be the effect or the level left
Homo sapiens [9] = species: Homo sapiens; experiment: Inhibition of linezolid-induced hematological events in bone infection patient assessed as rate of anemia at 125 mg relative to control; type: functional; design: scale not given: the % may be the effect or the level left

## CO[C@H]1/C=C/O[C@@]2(C)Oc3c(C)c(O)c4c(O)c(c(/C=N/N5CCN(C)CC5)c(O)c4c3C2=O)NC(=O)/C(C)=C\C=C\[C@H](C)[C@H](O)[C@@H](C)[C@@H](O)[C@@H](C)[C@H](OC(C)=O)[C@@H]1C [RIFAMPIN]
Homo sapiens [1]
  Activity: 5.8%
Homo sapiens [2]
  Activity: Active

## CC(=O)NC[C@H]1CN(c2ccc(N3CCOCC3)c(F)c2)C(=O)O1 [LINEZOLID]
Staphylococcus aureus
  MIC: 0.5 µg/mL (≈ 1.48 µM)
Staphylococcus
  MIC: 0.5 µg/mL (≈ 1.48 µM)
Enterococcus
  MIC: 0.5 µg/mL (≈ 1.48 µM)
Streptococcus
  MIC: 0.5 µg/mL (≈ 1.48 µM)
[3]
  IC50: 3.37 µg/mL (≈ 9.99 µM)
[4]
  AUC at 24 h: 260 µg·h/mL
[5]
  concentration at 12 h: 6000 ng/mL

## Cc1ncc(CO)c(CO)c1O [PYRIDOXINE]
Homo sapiens [6]
  Activity: inactive
Homo sapiens [7]
  Activity: inactive
Homo sapiens [8]
  Activity: 45.8%
Homo sapiens [9]
  Activity: 25%
